Experimental data: patent US20060167276A1, “Clausenamide c5-hydroxyl derivatives and n-substituted derivatives, processes for their preparation, its composition and use” (priority 2002, published 2006)

Assays:
[1] = several behavioral studies; cited from earlier work
[2] = in vivo and in vitro; cited from earlier work
rat hippocampus = assay: LTP / synaptic transmission in rat hippocampus (population spike amplitude, dentate gyrus); format: in vivo; settings: lateral ventricle, prior administration = 100
Source text: Male adult SD Rats (5 per group) were anesthetized with 20% (w/v) urethane carbamate (1.0 g·kg^−1, ip) and fixed in a stereotaxic head holder. According to the reference of Pellegrino stereotaxic spectrum of rat, recording electrodes (stainless steel needle of 0.2 mm diameter were insulted except for 0.2 mm tip) were placed in the dentate gyrus granule cell layer. The stimulating electrodes (two stainless steel needles of 0.15 mm diameter coated with Teflon except for the 0.2 mm tip, and the distance between two needles was 0.5 mm) were planted between the fibre of perforant path (PP) in rat. Continuous pulse was provided by electronic stimulator, and delivered to PP through stimulus isolator and stimulating electrodes. Electrode depth was then adjusted until a typical excitatory postsynaptic potential (EPSP) was observed. Electric current was magnified by amplifier and collected by computer, then processed by DataWave software. The stimulus intensity was adjusted to produce population spike (PS) with a slope that was ≈50% of the maximum. Single-pulse test stimuli were at an interval of 30 sec during the experiment. Population spike amplitude (PSA) was recorded and the relatively percent of PSA was calculated according to the formula (PSA/basic value).

[3] = test system: C17-2 mouse brain neural stem cells; assay: Cell proliferation of mouse brain neural stem cells (MTT, OD 490 nm); format: cell-based; settings: for Result (OD value): MTT at 4th day, OD 490 nm; for Cell proliferation %: control group = 100%
Method: C17-2 mouse brain neural stem cells (C17-2 cells) were continuously cultured in 1640 medium with 10% horse serum and 10% fetal bovine serum at 5% CO2 and 37° C., dissociated to single cell suspension by 0.1% trypsin solution, centrifuged at 1,000 rpm×5 min and rinsed with medium. The cells were seeded in a 96-well plate, 1×10^3 cells per well, 3 well per group, continuously cultured. After 24 hours, the test compounds were added, doses of each of the C5-hydroxyl substituted clausenamides and N-substituted clausenamide derivatives were 0.1 μM, 1 μM and 10 μM respectively. The growth situation of the cells was observed under a microscope, once daily. At the 4th day, media in each well were pipetted, phosphate buffer solution containing MTT was added. 4 Hours later, the fluid was discarded, and a DMSO solution was added. The cells were incubated at 37° C. for 10 min under shaken. OD values on 490 nm of each well were detected. Set the growth rate of the control group as 100%, and the growth rates of each dose were given by comparison with the control group and t-tested.

CN1C(=O)C(O)C(c2ccccc2)C1C(O)c1ccccc1 (racemic) [clausenamide]
nootropic effect [1]: Significant nootropic effect

O=C1C(O)C(c2ccccc2)C(C(O)c2ccccc2)N1CO (single isomer, unassigned; (-)) [(−)CM1, (−) N-hydroxymethyl norclausenamide]
content in the metabolites of (−) clausenamide compared with the corresponding (+) isomers in the metabolites of (+) clausenamide [2]: significantly higher

CN1C(=O)C(O)C(c2ccccc2)C1(O)C(O)c1ccccc1 (single isomer, unassigned; (-)) [(−)CM2, (−) 5-hydroxyclausenamide]
content in the metabolites of (−) clausenamide compared with the corresponding (+) isomers in the metabolites of (+) clausenamide [2]: significantly higher

CN1C(=O)[C@@H](O)[C@H](c2ccccc2)[C@]1(O)[C@@H](O)c1ccccc1 [(−)II3, (−)-(3S,4S,5S,6S)-5-hydroxy-clausenamide]
Relative PS (PSA %) (rat hippocampus; 15 min after administration): 92.83 ± 17.54% | Relative PS (PSA %) (rat hippocampus; 30 min after administration): 87.11 ± 30.54% | Relative PS (PSA %) (rat hippocampus; 45 min after administration): 97.34 ± 25.71% | Relative PS (PSA %) (rat hippocampus; 60 min after administration): 98.30 ± 28.59% | Result (OD value) ([3]; dose 10^−5 M): 0.088 ± 0.006 | Cell proliferation % ([3]; dose 10^−5 M): 64.23% | Result (OD value) ([3]; dose 10^−6 M): 0.187 ± 0.020 | Cell proliferation % ([3]; dose 10^−6 M): 136.50% | Result (OD value) ([3]; dose 10^−7 M): 0.168 ± 0.076 | Cell proliferation % ([3]; dose 10^−7 M): 122.63%
